The results in this text go back to publication PMC5681660, “Reduced hepatitis B and D viral entry using clinically applied drugs as novel inhibitors of the bile acid transporter NTCP” (Scientific Reports, 2017).

Structures can show the parent of a compound that is named as a salt. Where two headings read alike, the source gives them in different places.

The target in assay [1] is T1, human NTCP (Homo sapiens, UniProt Q14973).
T1 sequence (Q14973 1-349): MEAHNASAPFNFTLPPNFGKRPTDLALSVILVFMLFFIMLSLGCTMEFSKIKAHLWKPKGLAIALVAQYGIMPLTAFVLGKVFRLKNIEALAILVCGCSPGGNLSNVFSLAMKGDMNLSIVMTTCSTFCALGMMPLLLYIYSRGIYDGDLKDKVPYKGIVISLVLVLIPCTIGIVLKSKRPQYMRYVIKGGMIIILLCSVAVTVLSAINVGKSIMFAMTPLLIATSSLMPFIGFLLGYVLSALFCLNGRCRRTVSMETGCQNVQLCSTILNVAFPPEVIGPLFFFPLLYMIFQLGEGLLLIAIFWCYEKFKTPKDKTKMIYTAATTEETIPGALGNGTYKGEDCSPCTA
Description: Screening taurocholate uptake assay (96-well, [14C]taurocholate, 10 µM drug).

In assay [2] the target is T1, human NTCP. The experiment in a line: Screening fluorescent competitive Myrcludex B-FITC binding assay (96-well, 10 µM drug).
The mark [3] stands for this setting: Prestwick library screen, taurocholate uptake, 10 µM drug.
The mark [4] stands for this setting: ranking score beside the functional and binding assay B-scores of the screen.
Setting [5] is: Prestwick library screen, Myrcludex B-FITC binding, 10 µM drug.
Where [6] appears, read: combined ranking from functional and binding screening assays.
The mark [7] stands for this setting: screen, 10 µM drug, taurocholate uptake.
[8] abbreviates: screen, 10 µM drug, Myrcludex B-FITC binding.

Consider `C[C@H]1O[C@H](O[C@H]2[C@H](O)[C@@H](O)[C@@H](O[C@H]3[C@H](O)[C@@H](O)C(O)O[C@@H]3CO)O[C@@H]2CO)[C@H](O)[C@@H](O)[C@@H]1N[C@H]1C=C(CO)[C@@H](O)[C@H](O)[C@H]1O` (stereo partly drawn) [Acarbose], for which, at human NTCP [1] (setting [3]), the B-score functional assay came out at 1.632. The Ranking score at human NTCP [1] (setting [4]) is recorded as 792.136. The compound also displayed a B-score binding assay at human NTCP [2] (setting [5]) of -0.109.
Compound `CC(c1cc2ccccc2s1)N(O)C(N)=O` (stereo not drawn) [Zileuton] displayed a B-score functional assay on human NTCP [1] (setting [3]) of -0.271. Also, the Ranking score at human NTCP [1] (setting [4]) is reported as 706.817. In addition, the B-score binding assay on human NTCP [2] (setting [5]) stood at 1.294.
At human NTCP [1], `CNCC[C@@H](Oc1cccc2ccccc12)c1cccs1.Cl` [(R)-Duloxetine hydrochloride] displayed a B-score functional assay of 1.079 and a Ranking score of 610.37. This compound also showed a B-score binding assay at human NTCP [2] of -0.619.
With `C[C@]12CCC(=O)C(O)=C1CC[C@@H]1[C@@H]2CC[C@]2(C)C(=O)CC[C@@H]12` [Formestane], on human NTCP [1], the B-score functional assay is -0.613 and the Ranking score is 420.899. For the same compound, at human NTCP [2], the B-score binding assay is on record as -0.147.
As for `O=c1oc2ccccc2c(O)c1Cc1c(O)c2ccccc2oc1=O` [Dicumarol], the Ranking score on human NTCP [1] (setting [6]) is given as 403.485. At human NTCP [1] (setting [7]), this compound returned a B-score functional assay of -1.792. The compound further returned a B-score binding assay on human NTCP [2] (setting [8]) of 1.31.
The compound `C#CCN[C@@H]1CCc2ccccc21` [Rasagiline] displayed a B-score functional assay on human NTCP [1] (setting [3]) of -0.098. Moreover, on human NTCP [1] (setting [4]), the Ranking score is on record as 667.796. Further, the B-score binding assay at human NTCP [2] (setting [5]) turned out to be 0.275.
For the compound `CC(=O)N[C@@H](CC(=O)N[C@@H](CCC(=O)O)C(=O)O)C(=O)O` [Spaglumic acid], the Ranking score on human NTCP [1] (setting [6]) is recorded as 411.514. The compound further returned a B-score functional assay on human NTCP [1] (setting [7]) of -0.043. Moreover, at human NTCP [2] (setting [8]), the B-score binding assay is listed as -0.793.
With `CCn1cc(C(=O)O)c(=O)c2cc(F)c(N3CCNC(C)C3)c(F)c21` (stereo not drawn) [Lomefloxacin hydrochloride], on human NTCP [1] (setting [3]), the B-score functional assay is 0.226. The same compound gave a Ranking score at human NTCP [1] (setting [4]) of 831.882. Besides, the B-score binding assay on human NTCP [2] (setting [5]) came to 0.323.
For the compound `C[C@@]1(O)CCOC(=O)C1` [Mevalonic-D, L acid lactone], the B-score functional assay on human NTCP [1] (Prestwick library screen, 10 µM drug, B-score of taurocholate uptake) came out at 0.673. Also, at human NTCP [1] (combined ranking from functional and binding assay B-scores), the Ranking score stood at 868.822. Besides, the B-score binding assay on human NTCP [2] (Prestwick library screen, 10 µM drug, B-score of Myrcludex B-FITC binding) worked out at 0.161.
`CCN(CC)CCCC(C)Nc1c2ccc(Cl)cc2nc2ccc(OC)cc12.Cl.Cl` (stereo not drawn) [Quinacrine dihydrochloride hydrate]: the Ranking score on human NTCP [1] (setting [6]) is 399.375. For the same compound, at human NTCP [1] (setting [7]), the B-score functional assay was -2.093. For the same compound, the B-score binding assay on human NTCP [2] (setting [8]) is reported as 7.101.
For `Clc1cnccn1` [2-Chloropyrazine], the B-score functional assay on human NTCP [1] (setting [3]) is on record as 1.648. Further, on human NTCP [1] (setting [4]), the Ranking score amounted to 812.047. At human NTCP [2] (setting [5]), this compound returned a B-score binding assay of -0.068.
The like results for `Cc1ccccc1OCC(O)CO` (stereo not drawn) [Mephenesin] were, in that order, -0.317, 689.632 and 1.192.
Taken in the same sequence, the figures for `C[C@H]1C[C@H]2[C@@H]3CCC4=CC(=O)C=C[C@]4(C)[C@@]3(F)[C@@H](O)C[C@]2(C)[C@@]1(O)C(=O)CO` [Betamethasone] were 0.975, 747.052 and -0.13.
On to `COc1cc(-c2ccc(=O)[nH]n2)ccc1OC(F)F` [Zardaverine], for which the Ranking score at human NTCP [1] (setting [6]) was found to be 379.335. Also, the B-score functional assay at human NTCP [1] (setting [7]) is -1.701. The B-score binding assay on human NTCP [2] (setting [8]) is reported as 0.49.
As for `CCN(CC)CC#CCOC(=O)C(O)(c1ccccc1)C1CCCCC1` (stereo not drawn) [Oxybutynin chloride], the B-score functional assay on human NTCP [1] (setting [3]) is reported as 0.163. The compound also returned a Ranking score on human NTCP [1] (setting [4]) of 808.614. For the same compound, at human NTCP [2] (setting [5]), the B-score binding assay is 0.285.
Regarding `CC(C)[N+](C)(CCC(C(N)=O)(c1ccccc1)c1ccccc1)C(C)C` [Isopropamide iodide], on human NTCP [1] (setting [3]), the B-score functional assay amounted to 0.036. Further, the Ranking score at human NTCP [1] (setting [4]) was 698.928. Besides, the B-score binding assay on human NTCP [2] (setting [5]) came to 0.056.
